From ChEMBL document CHEMBL3886685, “Nitrogen-containing bicyclic aromatic heterocyclic compound” (2016) come the findings set out here.

pIC50: −log10 of the molar value.

For this experiment, the target named is Cathepsin S (Homo sapiens, UniProt P25774). Nature of the experiment: Inhibition Assay: 5 μL of a human cathepsin S enzyme (R&D1183-CY-010) was added to a 96-well plate so as to be 20 ng/well. Next, 10-fold dilution of the test compound (a 10 mM DMSO solution) was serially performed with a buffer solution for assay (a solution of 50 mM sodium methoxide, 250 mM sodium chloride and 5 mM dithiothreitol (DTT), adjusted to pH=4.5 with 1 N hydrochloric acid) six times such that the final concentration becomes 0.1 nM to 10 μM then, 20 μL of each of the solutions was added to the wells (the final DMSO concentration was 0.1%), and 25 μL of synthetic substrate VVR-AMC (3211-V manufactured by PEPTIDE […], INC.) was added thereto such that the final concentration becomes 40 μM, thereby starting a enzyme reaction. A fluorescence intensity (an excitation wavelength: 380 nm and a fluorescent wavelength: 460 nm) was measured at 37° C. for 10 minutes immediately after the start of the reaction using a fluorescence spectrophotometer (SPECTRA MAX GEMINI, manu.
Cathepsin S, sequence (P25774 whole entry): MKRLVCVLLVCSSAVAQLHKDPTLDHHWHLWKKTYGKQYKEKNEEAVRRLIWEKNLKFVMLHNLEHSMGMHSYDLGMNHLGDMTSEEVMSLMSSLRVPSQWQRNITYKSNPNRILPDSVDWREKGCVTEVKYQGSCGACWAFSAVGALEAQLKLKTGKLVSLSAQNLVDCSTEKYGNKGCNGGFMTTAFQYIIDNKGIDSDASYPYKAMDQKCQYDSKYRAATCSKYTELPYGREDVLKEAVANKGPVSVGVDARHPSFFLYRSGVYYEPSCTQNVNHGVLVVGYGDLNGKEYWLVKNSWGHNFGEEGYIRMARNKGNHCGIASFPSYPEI

Regarding `CCN1CCC(CCOc2ccc(-c3nc(C#N)nc4c3ccn4C3COC3)cc2C(F)(F)F)CC1`, the negative-log IC50 (pIC50) (commonly the negative decadic logarithm of the IC50, by convention in mol/L) was 8.54.
For `CCOc1ccc(-c2nc(C#N)nc3c2ccn3CC(=O)NC2CCN(C)CC2)cc1C(F)(F)F` the value was 8.54; for `Cn1cnc2c(-c3cc(F)c(OCCC4CCNCC4)c(C(F)(F)F)c3)nc(C#N)nc21`, 8.72; for `Cn1ccc2c(-c3ccc(OCC4CNC4)c(C(F)(F)F)c3)nc(C#N)nc21`, 8.35.
`N#Cc1nc(-c2ccc(OCCC3CCN(CCO)CC3)c(C(F)(F)F)c2)c2ccn(CC3CCOC3)c2n1` (configuration not stated) had a pIC50 of 8.51. This pIC50 and that of the compound before are within 0.2 log units of each other.
Regarding `CN1CCC[C@H]1C(=O)N1CC(COc2ccc(-c3nc(C#N)nc4c3ccn4C)cc2C(F)(F)F)C1`, the pIC50 was 8.68.
`CCN1CCC(CCOc2ccc(-c3nc(C#N)nc4c3ccn4CC3CCOC3)cc2C#N)CC1` (configuration not stated) showed a pIC50 of 8.57. The pIC50 values of the last two compounds are within 0.2 log units of each other.
`Cn1c(C(F)(F)F)nc2c(-c3cnc(OCCC4CCNCC4)c(C(F)(F)F)c3)nc(C#N)nc21` showed a pIC50 of 8.48.
`CN1CCC[C@H]1C(=O)N1CCC(CCOc2ccc(-c3nc(C#N)nc4c3ccn4CC3CCOC3)cc2C(F)(F)F)CC1` (some centres not stated) had a negative-log IC50 (pIC50) of 8.33.
The same measure for `N#Cc1nc(-c2cnc(OCCC3CCNCC3)c(C(F)(F)F)c2)c2ccn(CC(=O)N3CCOCC3)c2n1`: 8.51.
For `CCN1CCC(CCOc2ncc(-c3nc(C#N)nc4c3ccn4C)cc2C(F)(F)F)CC1` the value was 8.72.
Turning to `CCN1CC(COc2ccc(-c3nc(C#N)nc4c3ccn4C)cc2C(F)(F)F)C1`, the pIC50 is 8.51.
In turn, `CCN1CCC(C)(COc2ccc(-c3nc(C#N)nc4c3ccn4C)cc2C(F)(F)F)CC1` showed a pIC50 of 8.42.
The compound `CCN1CCN(C(=O)COc2ccc(-c3nc(C#N)nc4c3ncn4C)cc2C(F)(F)F)CC1` gave a negative-log IC50 (pIC50) of 8.59. The pIC50 values of the last two compounds are within 0.2 log units of each other.
With `N#Cc1nc(-c2ccc(OCCC3CCOCC3)c(C(F)(F)F)c2)c2ccn(CC(=O)N3CCC(CN4CCCC4)CC3)c2n1`, the negative logarithm of the IC50 (pIC50) was 8.60.
The compound `CN1CCC[C@H]1C(=O)N1CCC(CCOc2ccc(-c3nc(C#N)nc4c3ncn4C)cc2C(F)(F)F)CC1` gave a negative logarithm of the IC50 (pIC50) of 8.46.
For `CN1CCC(C(=O)N2CCC(CCOc3ccc(-c4nc(C#N)nc5c4ncn5C)cc3C(F)(F)F)CC2)C1` (configuration not stated) the value was 8.64; for `CN1C[C@@H](O)C[C@H]1C(=O)N1CCC(CCOc2ccc(-c3nc(C#N)nc4c3ncn4C)cc2C(F)(F)F)CC1`, 8.64; for `CCN1CCCC(COc2ccc(-c3nc(C#N)nc4c3ccn4C)cc2C(F)(F)F)C1` (configuration not stated), 8.52.
For `CN1CCC[C@H]1C(=O)N1CCC(CCOc2ncc(-c3nc(C#N)nc4c3ncn4C)cc2C(F)(F)F)CC1`, the pIC50 was 8.51.
The same measure for `CCN1CCC(CCOc2ncc(-c3nc(C#N)nc4c3ccn4CC(=O)N3CCOCC3)cc2C(F)(F)F)CC1`: 8.62; for `Cn1cnc2c(-c3ccc(OCCC4CCN(CC(=O)N5CCCC5)CC4)c(C(F)(F)F)c3)nc(C#N)nc21`: 8.80.
Regarding `CCN1CCC(OCCOc2ccc(-c3nc(C#N)nc4c3ccn4C)cc2C(F)(F)F)CC1`, the negative-log IC50 (pIC50) was 8.70.
As to `CN1CCC[C@H]1C(=O)N1CCC(CCOc2ccc(-c3nc(C#N)nc4c3ccn4C)cc2C(F)(F)F)C1` (some centres not stated), the negative logarithm of the IC50 (pIC50) was 8.64.
For `CCN1CCC(CCOc2ccc(-c3nc(C#N)nc4c3ccn4CC(N)=O)cc2C(F)(F)F)CC1` the value was 8.70.
Turning to `Cn1ccc2c(-c3ccc(SCCC4CCNCC4)c(C(F)(F)F)c3)nc(C#N)nc21`, the pIC50 is 8.77.
The same measure for `Cn1ccc2c(-c3ccc(OCCC4CC5CCC(C4)N5)c(C(F)(F)F)c3)nc(C#N)nc21` (configuration not stated): 8.44.
The same measure for `N#Cc1nc(-c2cnc(OCCC3CCNCC3)c(C(F)(F)F)c2)c2ccn(CC3CCOC3)c2n1` (configuration not stated): 8.47; for `CCN1CCC(CCOc2ncc(-c3nc(C#N)nc4c3ncn4C)cc2C(F)(F)F)CC1`: 9.00.
For `CN1CCC[C@H]1C(=O)N1CCC(CCOc2ccc(-c3nc(C#N)nc4c3ccn4C3COC3)cc2C(F)(F)F)CC1` the value was 8.48.
Compound `CN1CCC[C@H]1C(=O)N1CCC(CCOc2ccc(-c3nc(C#N)nc4c3ccn4CC3CCOC3)cc2C#N)CC1` (some centres not stated) gave a pIC50 of 8.11.
For `CN1CCC[C@H]1C(=O)N1CCC(CCOc2ncc(-c3nc(C#N)nc4c3ccn4C)cc2C(F)(F)F)CC1` the value was 8.32.
Regarding `CN1CCC[C@H]1C(=O)N1CCCC(COc2ccc(-c3nc(C#N)nc4c3ccn4C)cc2C(F)(F)F)C1` (some centres not stated), the pIC50 is 8.44.
For `N#Cc1nc(-c2ccc(OCCC3CCN(C(CF)CF)CC3)c(C#N)c2)c2ccn(CC3CCOC3)c2n1` (configuration not stated) the value was 8.05.
For `CCN1CCC(COc2ccc(-c3nc(C#N)nc4c3ccn4CC3CCOC3)cc2C(F)(F)F)CC1` (configuration not stated) the value was 8.55.
The same measure for `CCN1CCC(CCOc2ccc(-c3nc(C#N)nc4c3ccn4CC3CCOC3)cc2C(F)(F)F)CC1` (configuration not stated): 8.41; for `Cn1ccc2c(-c3ccc(OCC4(C)CCNCC4)c(C(F)(F)F)c3)nc(C#N)nc21`: 8.44; for `N#Cc1nc(-c2ccc(OCCC3CCNCC3)c(C#N)c2)c2ccn(CC3CCOC3)c2n1` (configuration not stated): 8.48.
On to `Cn1cnc2c(-c3ccc(OCCC4CCN(C(=O)CO)CC4)c(C(F)(F)F)c3)nc(C#N)nc21`, for which the pIC50 was 8.21. Compared with the last compound, the pIC50 is 0.27 log units lower.
`Cn1ccc2c(-c3ccc(OCCC4CCNC4)c(C(F)(F)F)c3)nc(C#N)nc21` (configuration not stated) gave a pIC50 of 8.89. This pIC50 lies 0.68 log units higher than the previous one.
Compound `Cn1cnc2c(-c3ccc(OCCC4CCNCC4)c(C(F)(F)F)c3)nc(C#N)nc21` gave a negative logarithm of the IC50 (pIC50) of 8.77.
For `Cn1ccc2c(-c3ccc(OCCOC4CCNCC4)c(C(F)(F)F)c3)nc(C#N)nc21` the value was 8.68; for `CCN1CCC(CCOc2ccc(-c3nc(C#N)nc4c3ncn4CC3CCOC3)cc2C(F)(F)F)CC1` (configuration not stated), 8.66; for `Cc1nnc(CN2CCC(CCOc3ccc(-c4nc(C#N)nc5c4ncn5C)cc3C(F)(F)F)CC2)o1`, 8.64.
Compound `CN1CCC[C@H]1C(=O)N1CCC(CCOc2ncc(-c3nc(C#N)nc4c3ncn4CC3CCOC3)cc2C(F)(F)F)CC1` (some centres not stated) gave a pIC50 of 8.85.
The same measure for `CC(C)N1CCC(CCOc2ccc(-c3nc(C#N)nc4c3ccn4CC3CCOC3)cc2C#N)CC1` (configuration not stated): 8.37.
The same measure for `N#Cc1nc(-c2ccc(OCC3CCNCC3)c(C(F)(F)F)c2)c2ccn(CC3CCOC3)c2n1` (configuration not stated): 8.72.
The same measure for `CN(C)C(=O)CN1CCC(CCOc2ccc(-c3nc(C#N)nc4c3ccn4CC3CCOC3)cc2C(F)(F)F)CC1` (configuration not stated): 8.54; for `Cn1cnc2c(-c3ccc(OCCC4CCN(CCO)CC4)c(C(F)(F)F)c3)nc(C#N)nc21`: 9.12.
`CN(C)C(=O)CN1CCC(CCOc2ccc(-c3nc(C#N)nc4c3ccn4CCO)cc2C(F)(F)F)CC1` showed a negative logarithm of the IC50 (pIC50) of 8.72.
`Cn1ccc2c(-c3ccc(OCC4CCCNC4)c(C(F)(F)F)c3)nc(C#N)nc21` (configuration not stated) had a negative-log IC50 (pIC50) of 8.51.
For `CN1CCC(C(=O)N2CCC(CCOc3ccc(-c4nc(C#N)nc5c4ncn5C)cc3C(F)(F)F)CC2)CC1` the value was 8.57; for `CCN1CCC(CCOc2ccc(-c3nc(C#N)nc4c3ccn4CCO)cc2C(F)(F)F)CC1`, 8.64; for `N#Cc1nc(-c2ccc(OCCC3CCNCC3)c(C(F)(F)F)c2)c2ccn(CC3CCCO3)c2n1` (configuration not stated), 8.59.
For `CCN1CCC(CCOc2ncc(-c3nc(C#N)nc4c3ccn4CC3CCOCC3)cc2C(F)(F)F)CC1` the value was 8.49; for `Cn1ccc2c(-c3ccc(OCCC4CCN(C(C)(C)C)CC4)c(C(F)(F)F)c3)nc(C#N)nc21`, 8.70.
`Cn1cnc2c(-c3ccc(OCCC4CCN(CC#N)CC4)c(C(F)(F)F)c3)nc(C#N)nc21` gave a pIC50 of 8.57.
The same measure for `Cn1cnc2c(-c3cnc(OCCC4CCNCC4)c(C(F)(F)F)c3)nc(C#N)nc21`: 8.85; for `N#Cc1nc(-c2ccc(OCCC3CCNCC3)c(C(F)(F)F)c2)c2ccn(C3CCOC3)c2n1` (configuration not stated): 8.55.
With `N#Cc1nc(-c2cnc(OCCC3CCNCC3)c(C(F)(F)F)c2)c2ccn(CC3CCOCC3)c2n1`, the pIC50 is 8.46. This pIC50 and that of the compound before are within 0.2 log units of each other.
`Cn1ccc2c(-c3cnc(OCCC4CCCNC4)c(C(F)(F)F)c3)nc(C#N)nc21` (configuration not stated) showed a negative-log IC50 (pIC50) of 8.57. The pIC50 values of the last two compounds are within 0.2 log units of each other.
The same measure for `Cn1ccc2c(-c3cnc(OCCC4CCNCC4)c(C(F)(F)F)c3)nc(C#N)nc21`: 8.60; for `CN1CCC(N(C)C(=O)Cn2ccc3c(-c4ccc(OCCC5CCOCC5)c(C(F)(F)F)c4)nc(C#N)nc32)C1` (configuration not stated): 8.66.
The same measure for `CCN1CCC(CCOc2ccc(-c3nc(C#N)nc4c3ccn4CC)cc2C(F)(F)F)CC1`: 8.43; for `N#Cc1nc(-c2ccc(OCCC3CCNCC3)c(C(F)(F)F)c2)c2ccn(C3CCOCC3)c2n1`: 8.59; for `CCN1CCC(CCOc2ncc(-c3nc(C#N)nc4c3ncn4CC3CCOC3)cc2C(F)(F)F)CC1` (configuration not stated): 8.70.
For `CCN1CCC(CCOc2ncc(-c3nc(C#N)nc4c3ccn4CC3CCOC3)cc2C(F)(F)F)CC1` (configuration not stated) the value was 8.59.
The compound `CCN1CCC(CCOc2ccc(-c3nc(C#N)nc4c3ccn4C)cc2C(F)(F)F)C1` (configuration not stated) showed a pIC50 of 8.68.
Take `Cn1cnc2c(-c3ccc(OCCC4CCN(CC(=O)N5CCC(C#N)CC5)CC4)c(C(F)(F)F)c3)nc(C#N)nc21`: the pIC50 was 8.68.
In turn, `CN(C)C(=O)CN1CCCC(COc2ccc(-c3nc(C#N)nc4c3ccn4C)cc2C(F)(F)F)C1` (configuration not stated) gave a pIC50 of 8.40.
Consider `CCN1CCC(CCOc2ccc(-c3nc(C#N)nc4c3ncn4C)cc2C(F)(F)F)CC1`, for which the negative logarithm of the IC50 (pIC50) is 8.92.
The same measure for `Cn1cnc2c(-c3ccc(OCC(=O)N4CCNCC4)c(C(F)(F)F)c3)nc(C#N)nc21`: 8.05.
For `N#Cc1nc(-c2ccc(OCCC3CCNCC3)c(C(F)(F)F)c2)c2cc[nH]c2n1` the value was 8.66.
For `N#Cc1nc(-c2ccc(OCCC3CCNCC3)c(C(F)(F)F)c2)c2ccn(CC3CCOC3)c2n1` (configuration not stated) the value was 8.72; for `CN1CCC[C@H]1C(=O)N1CCC(COc2ccc(-c3nc(C#N)nc4c3ccn4CC3CCOC3)cc2C(F)(F)F)CC1` (some centres not stated), 8.66.
In the case of `CCn1ccc2c(-c3ccc(OCCC4CCNCC4)c(C(F)(F)F)c3)nc(C#N)nc21`, the negative-log IC50 (pIC50) is 8.52.
The same measure for `N#Cc1nc(-c2ccc(OCCC3CCN(CCO)CC3)c(C(F)(F)F)c2)c2ccn(CC3CCCO3)c2n1` (configuration not stated): 8.49.
